Results from patent US20180243260A1, “METHODS OF TREATING COGNITIVE AND BEHAVIORAL IMPAIRMENT IN DOWN SYNDROME AND ALZHEIMERS DISEASE PATIENTS” (AVANTI BIOSCIENCES INC., priority 2016, published 2018).

Key:
[1] = target: T1, DYRK1A (Rattus norvegicus, UniProt Q63470); assay: DYRK1A ELISA non-radioactive kinase assay; assay type: biochemical; settings: HT-PRD substrate, 100 μM ATP, 30 min at 30° C.
T1 construct: 6x histidine tag (HT)
Experimental: Decant HT-PRD solution, wash the wells twice with Tris dilution buffer. Block each well with 150 μl BSA/PBST blocking buffer PBST (2% BSA in PBS with 0.25% Tween 20) for at least 1 hr at room temperature.
Decant the blocking solution and wash the wells 3-4 times with Tris dilution buffer. Perform DYRK1A phosphorylation in the well with 100 μl reaction buffer (25 mM HEPES, pH 7.4, 100 mM NaCl, 5 mM MgCl2, and 100 μM ATP) containing DYRK1A (eg. 5-10 ng purified HT-DYRK1A) and inhibitor, if necessary, for 30 min at 30° C. […] Use 80 μl of this mixture in the reaction will give final ATP concentration of 100 μM. ATP concentrations may be adjusted if necessary. • 2. Add 10 μl inhibitor. If the inhibitor is dissolved in DMSO, shake the plate gently for 1 min before adding kinase. • 3. Dilute DYRK1A in Tris dilution buffer to a concentration of 0.5 ng/l (prepare fresh every time). • 4. Initiate phosphorylation by adding 10 l DYRK1A to each well.
Decant the phosphorylation solution and wash the wells three times with PBST. Add 100 μl diluted antibody 3D3 (eg. 2˜3K dilution of 1.5 mg/ml stock in BSA blocking buffer) and incubate for 1 hr at room temperature.
Decant the primary antibody solution and wash the wells three times with PBST. Add 100 μl diluted AP-conjugated anti-mouse IgG (5K dilution of anti-mouse IgG-AP in BSA blocking buffer) and incubate for 1 hr at room temperature.
Color Development and Detection.
Decant the secondary antibody and wash the wells extensively (3-4 times) with AP buffer (10 mM Tris-HCl, pH 9.5, 10 mM NaCl, and 5 mM MgCl2). Add 100 μl p-nitrophenyl phosphate solution (1 mg/ml in AP buffer or 1 PNPP tablet per 5 ml 1× diethanolamine substrate buffer) and incubate the plate at 30° C. Yellow color should start appearing in a few minutes. OD at 405 nm usually can be read between 10-30 min.

[2] = system: DS patients; settings: randomized, double-blinded placebo-controlled study, De la Torre et al. 2014; cited from earlier work
[3] = target: DYRK1A (Homo sapiens, UniProt Q13627); settings: non-ATP competitive DYRK1A inhibitor; Bain, J., et al., Biochem J 408 (2007); cited from earlier work

Structure (SMILES)	IC50 [1] [µM]	memory recognition, working memory and quality of life [2]	IC50 [3] [µM]
Oc1cc(O)c2c(c1)O[C@H](c1cc(O)c(O)c(O)c1)[C@H](O)C2 [(2R,3R)-2-(3,4,5-trihydroxyphenyl)chroman-3,5,7-triol]	> 100		
O=C(O[C@@H]1Cc2c(O)cc(O)cc2O[C@@H]1c1ccc(O)c(O)c1)c1cc(O)c(O)c(O)c1 [(2R,3R)-2-(3,4-dihydroxyphenyl)-5,7-dihydroxychroman-3-yl 3,4,5-trihydroxybenzoate]	0.52		
Oc1cc(O)c2c(c1)O[C@@H](c1cc(O)c(O)c(O)c1)[C@H](O)C2 [(2S,3R)-2-(3,4,5-trihydroxyphenyl)chroman-3,5,7-triol]	> 100		
O=C(O[C@@H]1Cc2c(O)cc(O)cc2O[C@@H]1c1cc(O)c(O)c(O)c1)c1cc(O)c(O)c(O)c1 [EGCG, Epigallocatechin gallate]		improved memory recognition, working memory and quality of life	0.33

More lines, main results first:

IC50 [1] [µM]	Structure (SMILES)	memory recognition, working memory and quality of life [2]	IC50 [3] [µM]
> 100	Oc1cc(O)c2c(c1)O[C@H](c1ccc(O)c(O)c1)[C@H](O)C2 [(2R,3R)-2-(3,4-dihydroxyphenyl)chroman-3,5,7-triol]		
5.8	COc1c(O)cc([C@H]2Oc3cc(O)cc(O)c3C[C@H]2OC(=O)c2cc(O)c(O)c(O)c2)cc1O [(2R,3R)-2-(3,5-dihydroxy-4-methoxyphenyl)-5,7-dihydroxychroman-3-yl 3,4,5-trihydroxybenzoate]		
25.1	COc1c(O)cc(C(=O)O[C@@H]2Cc3c(O)cc(O)cc3O[C@@H]2c2cc(O)c(O)c(O)c2)cc1O [(2R,3R)-5,7-dihydroxy-2-(3,4,5-trihydroxyphenyl)chroman-3-yl 3,5-dihydroxy-4-methoxybenzoate]		
0.18	O=C(O[C@@H]1Cc2c(O)cc(O)cc2O[C@H]1c1ccc(O)c(O)c1)c1cc(O)c(O)c(O)c1 [(2S,3R)-2-(3,4-dihydroxyphenyl)-5,7-dihydroxychroman-3-yl 3,4,5-trihydroxybenzoate]		
> 100	Oc1cc(O)c2c(c1)O[C@@H](c1ccc(O)c(O)c1)[C@H](O)C2 [(2S,3R)-2-(3,4-dihydroxyphenyl)chroman-3,5,7-triol]		
